Source: publication PMC11459967 (Antimicrobial Agents and Chemotherapy, 2024)
Where two headings read alike, the source gives them in different places.

Experiments:
[1] = biological target: T1, cathepsin B (Homo sapiens, UniProt P07858); assay: Cathepsin B enzymatic assay; format: biochemical
T1 construct: purchased RD Systems 953-CY-010
Experimental: Assays contained 0.6 nM cathepsin B (RD Systems: 953-CY-010), 25 µM Z-LR-AMC, and 100 nL of test compound in 100% DMSO in a total of 10 µL of 50 mM MES, pH 5.0, 150 mM NaCl, 0.05% CHAPS, and 5 mM DTT in black low volume 384-well plates. The production of AMC was followed at 5-min intervals at 355 nm excitation and 460 nm emission in an Envision microplate reader (PerkinElmer). Reaction rates were determined by linear regression of the resulting progress curves. Rates were normalized to percent inhibition, where 0% is equal to the rate in the presence enzyme, and 100% is equal to the rate in the absence of enzyme. Nonlinear regression fits of the data to a one-site dose-response curve were performed using XLFit (IDBS).

[2] = system: SARS-CoV-2 Delta (B.1.617); assay: microbe, parasite or virus in culture; format: cell-based; settings: Severe acute respiratory syndrome coronavirus 2, Vero C1008, 48 h; read-out: EC50 viral high-content imaging assay
[3] = biological target: T2, thrombin (Homo sapiens, UniProt P00734); assay: Thrombin enzymatic assay; format: biochemical
T2 construct: purchased RD Systems 1473-SE-010
Experimental: Assays contained 25 pM thrombin (RD Systems: 1473-SE-010), 25 µM BOC-PVR-AMC, and 100 nL of test compound in 100% DMSO, in a total of 10 µL of 50 mM Tris, pH 7.0, 100 mM NaCl, 10 mM CaCl2, and 0.005% Tween20 in black low volume 384-well plates. The production of AMC was followed at 5-min intervals at 355 nm excitation and 460 nm emission in an Envision microplate reader (PerkinElmer). Reaction rates were determined by linear regression of the resulting progress curves. […] Nonlinear regression fits of the data to a one-site dose-response curve were performed using XLFit (IDBS).

[4] = system: SARS-CoV-2 WT (WA1/2020); assay: Live virus high-content imaging assay (nucleocapsid expression), WT; format: cell-based; settings: Severe acute respiratory syndrome coronavirus 2, Vero C1008, Vero-E6 cells, 48 h infection, read-out: EC50 viral high-content imaging assay
[5] = system: SARS-CoV-2 Omicron (B.1.1.529); assay: microbe, parasite or virus in culture; format: cell-based; settings: Severe acute respiratory syndrome coronavirus 2, Vero C1008, 48 h; read-out: EC50 viral high-content imaging assay
[6] = biological target: T3, cathepsin L (Homo sapiens, UniProt P07711); assay: Cathepsin L enzymatic assay; format: biochemical
T3 construct: purchased RD Systems 952-CY-010
Experimental: The assays contained 25 pM cathepsin L (RD Systems: 952-CY-010), 5 µM LR-AMC, 100 nL of test compound in 100% DMSO, in a total of 10 µL of 20 mM potassium phosphate, pH 6.0, 150 mM NaCl, 0.005% Tween20, and 5 mM DTT in black low volume 384-well plates. The production of AMC was followed at 5-min intervals with excitation at 355 nm and emission at 460 nm using an Envision microplate reader (PerkinElmer). Reaction rates were determined by linear regression of the resulting progress curves. […] Nonlinear regression fits of the data to a one-site dose-response curve were performed using XLFit (IDBS).

[7] = biological target: SARS-CoV-2 Mpro (Severe acute respiratory syndrome coronavirus 2, UniProt P0DTC1); assay: biochemical; format: biochemical; settings: Mpro enzymatic assay
[8] = Mouse liver microsome stability assay; settings: microsomes
Experimental: Test compounds (0.5 µM) were incubated with liver microsomes ([…]) and an NADPH-regenerating system (cofactor solution), and samples were taken at various time points, quenched with an acetonitrile solution containing an internal standard, and then analyzed by liquid chromatography with tandem mass spectrometry (LC-MS/MS). […] For the 0-min time point, 135 µL of acetonitrile (ACN) containing internal standard (IS) was added to the wells of a 0-min plate, followed by the addition of 15 µL of NADPH stock solution (6 mM). All other plates were pre-incubated at 37°C for 5 min. Fifteen microliters of NADPH stock solution (6 mM) was then added to the plates to start the reaction and timing. […] Fifty microliters of supernatant was then transferred from each well into a 96-well sample plate containing 50 µL of ultra-pure water for LC/MS analysis.

[9] = Hamster pharmacokinetics (plasma and lung); format: in vivo
Experimental: Fig 10 […] pharmacokinetics of 1. Mean plasma and lung concentration-time profiles of compound 1 after single i.p. dose at 10 mg/kg in male hamster (N = 3/time point). In-life parameters of compound 1 are provided for plasma and lung.
To monitor pharmacokinetics of compound 1 following single intraperitoneal administration to male hamsters, compound 1 was prepared prior to use in 10% DMSO, 10% Solutol HS 15, plus 80% PBS in a concentration of 2 mg/mL by weighing 19.65 mg of compound 1 into a new vial and then adding 0.982 mL DMSO into the vial containing the compound and vortexing the vial for 2 min. In addition, 0.982 mL Solutol HS 15 was then added into the vial containing the compound, and the vial was vortexed for 2 min. Also, 7.860 mL of PBS was then added into the vial which was further vortexed for 3 min and sonicated for 0.5 min. Male hamsters weighing 89 g–104 g (N = 18) were purchased from Beijing Weitong Lihua Laboratory Animal Co. Ltd. Hamsters were fasted overnight and fed at 4 h post-dosing. The compound was administered 10 mg/kg (5 mL/kg) via intraperitoneal injection. Sampling was done at 0.25, 0.5, 1, 2, 4, and 6 h post dose, six time points, by terminal bleeding for plasma and lung at each time point. Approximately 150 µL blood/time point was collected into the K2EDTA tube via the jugular vein. The blood sample was put on wet ice and centrifuged to obtain a plasma sample (2,000 g, 5 min under 4°C) within 15 min. Lung collection was performed by making a mid-line incision in the animals’ chest and abdomen, the skin was retracted, and the lung was exposed after cutting off the ribs and removing other organs using surgical scissors and forceps. The lung was removed using surgical scissors and then rinsed with cold saline. The lung was placed in screw-top tubes and then stored under −70°C until analysis. Lung tissue was homogenized for 2 min with two volumes (vol/wt) of PBS (pH 7.4) immediately before analysis by LC-MS/MS.

[10] = system: SARS-CoV-2 (B.1.1.529/Omicron); settings: for mean reduction in SARS-CoV-2 genomic RNA (E gene) in lung tissue: 1 at 100 mg/kg, PF-332 at 50 mg/kg i.p. b.i.d.
[11] = system: SARS-CoV-2 Beta (B.1.351); assay: microbe, parasite or virus in culture; format: cell-based; settings: Severe acute respiratory syndrome coronavirus 2, Vero C1008, 48 h; read-out: EC50 viral high-content imaging assay
[12] = enzyme assay, at least 10-point dose-response curves in duplicate, read-out: CatB IC50
[13] = enzyme assay, at least 10-point dose-response curves in duplicate, read-out: CatL IC50
[14] = single IP dose at 10 mg/kg in male hamster
[15] = single i.p. dose at 10 mg/kg in male hamster
[16] = enzyme assay, at least 10-point dose-response curves in duplicate, read-out: Thrombin IC50

T3 sequence (P07711 114-333): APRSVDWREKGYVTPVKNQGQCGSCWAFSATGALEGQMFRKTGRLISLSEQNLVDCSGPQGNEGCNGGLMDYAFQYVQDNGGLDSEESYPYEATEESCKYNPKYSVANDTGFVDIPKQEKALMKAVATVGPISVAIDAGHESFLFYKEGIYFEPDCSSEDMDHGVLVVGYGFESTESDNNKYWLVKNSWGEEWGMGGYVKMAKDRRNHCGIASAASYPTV

CC(C)C[C@H](NC(=O)OCc1ccccc1)C(=O)N[C@@H](C[C@@H]1CCNC1=O)C(O)S(=O)(=O)O (some centres unmarked) [GC-376, reference compound]
IC50 [1]: 37 ± 15 nM | EC50 [2]: 600 nM | IC50 [3]: > 10000 nM | EC50 [4]: 300 ± 500 nM | EC50 [5]: 400 ± 500 nM | IC50 [6]: 0.05 nM

COc1cccc2[nH]c(C(=O)N[C@@H](CC(C)C)C(=O)N[C@@H](C[C@@H]3CCNC3=O)C(=O)COC(=O)c3c(Cl)cccc3Cl)cc12 [Compound 18, reference compound]
time to achieve maximum inhibition [7]: ≤ 10 min | IC50 [1, 12]: 24 ± 7.5 nM | half-life at 0.5 µM [8]: < 2 min | IC50 [6, 13]: 1.8 nM

N[C@H]1COc2ccccc2N(CC(=O)N[C@@H](C[C@@H]2CCNC2=O)C(=O)COC(=O)c2c(Cl)cccc2Cl)C1=O [Compound 9]
half-life at 0.5 µM ([8]; mouse): < 2 min

O=C(CN1C(=O)C(NC(=O)OCc2ccccc2)COc2ccccc21)NC(CC1CCNC1=O)C(=O)COC(=O)c1c(Cl)cccc1Cl (centres unmarked) [Compound 1]
Kp ([9]; lung / plasma, single IP dose at 10 mg/kg in male hamster, read-out: AUClung/AUCplasma): 3.2 | half-life ([9]; lung, single IP dose at 10 mg/kg in male hamster, read-out: lung T1/2 (converted)): 48.6 min | Tmax ([9]; lung, single IP dose at 10 mg/kg in male hamster, read-out: lung Tmax): 30 min | Cmax ([9]; plasma, single IP dose at 10 mg/kg in male hamster): 0.99 µg/mL | AUC(0-inf) ([9]; plasma, single IP dose at 10 mg/kg in male hamster, read-out: plasma AUCINF): 1.83 µg·h/mL | AUC(0-t) ([9]; plasma, single IP dose at 10 mg/kg in male hamster, read-out: plasma AUClast): 1.82 µg·h/mL | half-life ([9]; plasma, single IP dose at 10 mg/kg in male hamster, read-out: plasma T1/2 (converted)): 44 min | Tmax ([9]; plasma, single IP dose at 10 mg/kg in male hamster, read-out: plasma Tmax): 15 min | lung AUCINF [9, 14]: 5854 ng·h/g | lung AUClast [9, 14]: 5818 ng·h/g | lung Cmax [9, 14]: 3623 ng/g | clinical symptoms during the in-life phase [9, 15]: no abnormal clinical symptoms observed | concentration achieved in the lung [9, 15]: about 8 µM | IC50 ([1]; as stated in text: no substantial inhibition, read-out: cathepsin B IC50): > 15000 nM | IC50 [1, 12]: 18000 nM | EC50 [2]: 3000 ± 2400 nM | IC50 [3, 16]: > 32000 nM | EC50 [4]: 2100 ± 2100 nM | mean reduction in SARS-CoV-2 sub-genomic RNA (N gene) in lung tissue ([10]; […], 100 mg/kg i.p. b.i.d., versus vehicle, P = 0.002): 2.0 log | mean reduction in SARS-CoV-2 genomic RNA (E gene) in lung tissue ([10]; […], versus vehicle): 0.5 log | lung histopathology scores (H&E) compared to vehicle-treated SGH ([10]; hamster, in vivo): did not observe any significant difference | reduction in SARS-CoV-2 viral titer from lung tissue ([10]; hamster, in vivo): 32.6% | toxicities or behavioral abnormalities during dosing ([10]; hamster, in vivo): no obvious toxicities or behavioral abnormalities | EC50 [5]: 900 ± 900 nM | EC50 [11]: 3100 nM | half-life at 0.5 µM [8]: < 2 min | IC50 ([6]; as stated in text: no substantial inhibition, read-out: cathepsin L IC50): > 15000 nM | IC50 [6, 13]: > 32000 nM

O=C(CN1C(=O)[C@@H](NC(=O)c2ccccc2)COc2ccccc21)N[C@@H](C[C@@H]1CCNC1=O)C(=O)COC(=O)c1c(Cl)cccc1Cl [Compound 19]
IC50 [1, 12]: 13000 nM | half-life at 0.5 µM [8]: < 2 min

CC(C)(C)[C@H](NC(=O)C(F)(F)F)C(=O)N1C[C@H]2[C@@H]([C@H]1C(=O)N[C@H](C#N)C[C@@H]1CCNC1=O)C2(C)C [nirmatrelvir, reference compound]
reduction in N sub-genomic RNA in lung tissue ([10]; […], 50 mg/kg i.p. b.i.d., versus vehicle): 5.2 fold | mean reduction in SARS-CoV-2 genomic RNA (E gene) in lung tissue ([10]; […], versus vehicle): 3.0 log

O=C(CN1C(=O)[C@@H](NC(=O)c2ccc3ccccc3n2)COc2ccccc21)N[C@@H](C[C@@H]1CCNC1=O)C(=O)COC(=O)c1c(Cl)cccc1Cl [Compound 20]
IC50 [1, 12]: 1800 nM | IC50 [3, 16]: > 32000 nM | half-life at 0.5 µM [8]: < 2 min | IC50 [6, 13]: 23100 nM

O=C(CN1C(=O)[C@@H](NC(=O)OCc2ccccc2)COc2ccccc21)N[C@@H](C[C@@H]1CCNC1=O)C(=O)COc1cc(C(F)(F)F)nn1-c1ccc(F)cc1 [Compound 21]
IC50 [1, 12]: 27000 nM | IC50 [3, 16]: > 32000 nM | IC50 [6, 13]: > 32000 nM
